Data taken from the supplement of paper PMC10307832.

Assays:
Experiment in all cases: relative viability (nuclei count vs DMSO), 5 days (fraction); higher = more cells survive
[1] = compound: CC1=C(C=CC(=C1)[N+](=O)[O-])NS(=O)(=O)C2=C(C=CC(=C2)Cl)Cl [FH535] + O=C(c1cc(Cc2n[nH]c(=O)c3ccccc23)ccc1F)N1CCN(C(=O)C2CC2)CC1 [Olaparib] (partner 8 µM)
How it was run: (§1)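 Relative viability was taken as the ratio of nuclei in treated wells to nuclei in vehicle wells. Lung cancer cell lines in 1536-well plates received compounds by pin tool one day after seeding, either one drug alone or a fixed anchor-drug dose plus five library-drug doses (not always all listed) in √10 steps. Nuclei were counted on 4× images after 5 days of treatment, and values are medians of duplicate plates.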

[2] = compound: CC1=C(C=CC(=C1)[N+](=O)[O-])NS(=O)(=O)C2=C(C=CC(=C2)Cl)Cl [FH535] + Cc1nc(Nc2ncc(C(=O)Nc3c(C)cccc3Cl)s2)cc(N2CCN(CCO)CC2)n1 [Dasatinib] (partner 0.075 µM)
How it was run: as §1

[3] = compound: CC1=C(C=CC(=C1)[N+](=O)[O-])NS(=O)(=O)C2=C(C=CC(=C2)Cl)Cl [FH535] + O=C(CCCCCCC(=O)Nc1ccccc1)NO [Vorinostat] (partner 1 µM)
How it was run: as §1

[4] = compound: CC1=C(C=CC(=C1)[N+](=O)[O-])NS(=O)(=O)C2=C(C=CC(=C2)Cl)Cl [FH535] + C[C@]1(O)C[C@@H](c2nc(-c3ccc4ccc(-c5ccccc5)nc4c3)c3c(N)nccn32)C1 [Linsitinib] (partner 1 µM)
How it was run: as §1

[5] = compound: CC1=C(C=CC(=C1)[N+](=O)[O-])NS(=O)(=O)C2=C(C=CC(=C2)Cl)Cl [FH535] + Cc1cc(Nc2cc(N3CCN(C)CC3)nc(Sc3ccc(NC(=O)C4CC4)cc3)n2)n[nH]1 [Tozasertib] (partner 0.1 µM)
How it was run: as §1

| Cell Line | relative viability ([1]; first compound 0.04 µM) | relative viability ([1]; first compound 0.1265 µM) | relative viability ([1]; first compound 0.4 µM) | relative viability ([1]; first compound 1.265 µM) | relative viability ([2]; first compound 0.04 µM) | relative viability ([2]; first compound 0.1265 µM) | relative viability ([2]; first compound 0.4 µM) | relative viability ([2]; first compound 1.265 µM) | relative viability ([3]; first compound 0.04 µM) | relative viability ([3]; first compound 0.1265 µM) | relative viability ([3]; first compound 0.4 µM) | relative viability ([3]; first compound 1.265 µM) | relative viability ([4]; first compound 0.04 µM) | relative viability ([4]; first compound 0.1265 µM) | relative viability ([4]; first compound 0.4 µM) | relative viability ([4]; first compound 1.265 µM) | relative viability ([5]; first compound 0.04 µM) | relative viability ([5]; first compound 0.1265 µM) | relative viability ([5]; first compound 0.4 µM) | relative viability ([5]; first compound 1.265 µM) |
| --- | --- | --- | --- | --- | --- | --- | --- | --- | --- | --- | --- | --- | --- | --- | --- | --- | --- | --- | --- | --- |
| NCI-H1651 | 0.174 | 0.194 | 0.188 | 0.184 | 0.397 | 0.419 | 0.284 | 0.201 | 0.473 | 0.531 | 0.606 | 0.52 | 0.999 | 0.949 | 0.942 | 0.731 | 0.753 | 0.639 | 0.633 | 0.64 |
| NCI-H1666 | 0.742 | 0.731 | 0.756 | 0.725 | 0.833 | 0.85 | 0.716 | 0.64 | 1.01 | 0.995 | 0.992 | 0.959 | 0.88 | 0.78 | 0.753 | 0.55 | 0.6 | 0.544 | 0.631 | 0.545 |
| NCI-H1734 | 0.539 | 0.715 | 0.635 | 0.613 | – | 0.507 | 0.476 | 0.431 | 0.547 | 0.784 | 0.822 | 0.778 | 0.838 | 0.939 | 0.876 | 0.866 | – | 0.26 | 0.263 | 0.297 |
| NCI-H1755 | 0.867 | 0.857 | 0.8 | 0.869 | 0.353 | 0.46 | 0.404 | 0.422 | 0.616 | 0.807 | 0.752 | 0.707 | 0.968 | 0.996 | 0.912 | 0.919 | 0.569 | 0.533 | 0.515 | 0.525 |
| NCI-H1793 | 0.801 | 0.94 | 0.826 | 0.454 | 0.321 | 0.342 | 0.296 | 0.339 | 0.505 | 0.519 | 0.63 | 0.568 | 0.785 | 0.917 | 0.867 | 0.778 | 0.305 | 0.297 | 0.353 | 0.213 |
| NCI-H1915 | 0.208 | 0.286 | 0.242 | 0.236 | 0.292 | 0.306 | 0.287 | 0.3 | 0.44 | 0.481 | 0.534 | 0.532 | 1.08 | 1.12 | 1.08 | 0.896 | 0.38 | 0.418 | 0.429 | 0.356 |
| NCI-H1944 | 0.382 | 0.453 | 0.431 | 0.308 | 0.179 | 0.209 | 0.222 | 0.204 | 0.291 | 0.575 | 0.425 | 0.509 | – | 1.31 | 1.22 | 1.05 | 0.237 | 0.265 | 0.234 | 0.236 |
| NCI-H1975 | 0.868 | 0.877 | 0.718 | 0.624 | 0.304 | 0.341 | 0.263 | 0.294 | 0.651 | 0.744 | 0.675 | 0.622 | 0.95 | 0.986 | 0.925 | 0.784 | 0.654 | 0.726 | 0.602 | 0.635 |
| NCI-H1993 | 0.941 | 1.03 | 0.983 | 0.581 | 0.526 | 0.597 | 0.474 | 0.427 | 0.822 | 0.801 | 0.606 | 0.57 | 0.703 | 0.734 | 0.673 | 0.745 | 0.53 | 0.596 | 0.551 | 0.472 |
| NCI-H2009 | 0.666 | 0.652 | 0.662 | 0.552 | 0.256 | 0.307 | 0.269 | 0.277 | 0.732 | 0.762 | 0.693 | 0.602 | 1.2 | 1.09 | 1.13 | 1.05 | 0.777 | 0.806 | 0.747 | 0.631 |
| NCI-H2023 | 0.48 | 0.5 | 0.474 | 0.368 | 0.601 | 0.616 | 0.49 | 0.459 | 0.473 | 0.703 | 0.663 | 0.537 | 0.677 | 0.631 | 0.745 | 0.629 | 0.296 | 0.371 | 0.354 | 0.301 |
| NCI-H2085 | 0.818 | 0.713 | 0.749 | 0.571 | 0.271 | 0.174 | 0.284 | 0.217 | 0.815 | 0.849 | 0.659 | 0.62 | 0.858 | 0.924 | 0.892 | 0.724 | 0.845 | 0.784 | 0.726 | 0.522 |
| NCI-H2087 | 0.391 | 0.553 | 0.516 | 0.378 | 0.685 | 0.711 | 0.714 | 0.675 | 0.566 | 0.782 | 0.693 | 0.551 | 0.98 | 0.994 | 0.87 | 0.512 | 0.252 | 0.223 | 0.276 | 0.212 |
| NCI-H2126 | 0.928 | 0.896 | 0.822 | 0.525 | 0.598 | 0.573 | 0.49 | 0.292 | 0.72 | 0.782 | 0.727 | 0.567 | 0.746 | 0.719 | 0.705 | 0.619 | 0.809 | 0.823 | 0.832 | 0.583 |
| NCI-H2228 | 0.783 | 0.886 | 0.709 | 0.698 | 0.49 | 0.502 | 0.552 | 0.402 | 0.585 | 0.698 | 0.977 | 0.593 | 0.88 | 0.668 | 0.611 | 0.385 | 0.238 | 0.244 | 0.305 | 0.215 |
| NCI-H2347 | 0.525 | 0.595 | 0.553 | 0.498 | 0.298 | 0.292 | 0.294 | 0.261 | 0.753 | 0.681 | 0.608 | 0.52 | 1.02 | 1.05 | 0.902 | 0.812 | 0.633 | 0.461 | 0.522 | 0.631 |
| NCI-H2405 | 0.882 | 0.832 | 0.765 | 0.524 | 0.202 | 0.243 | 0.232 | 0.221 | 0.945 | 0.965 | 0.776 | 0.458 | 0.848 | 1.01 | 0.953 | 0.76 | 0.746 | 0.755 | 0.782 | 0.579 |
| NCI-H3122 | 0.631 | 0.6 | 0.581 | 0.48 | 0.703 | 0.782 | 0.713 | 0.719 | 0.901 | 1.1 | 0.979 | 0.966 | 0.989 | 1.07 | 0.977 | 0.895 | 0.329 | 0.367 | 0.475 | 0.369 |
| PC-3 [JPC-3] | 1.12 | 1.08 | 1.04 | 0.733 | 1.05 | 0.812 | 0.837 | 0.749 | 0.757 | 0.769 | 0.687 | 0.529 | 0.982 | 0.924 | 0.891 | 0.676 | 0.846 | 0.901 | 0.795 | 0.513 |
| PC-14 | 0.242 | 0.324 | 0.297 | 0.233 | 0.282 | 0.287 | 0.251 | 0.245 | 0.741 | 0.607 | 0.782 | 0.797 | 0.996 | 0.937 | 0.959 | 0.851 | 0.507 | 0.693 | 0.615 | 0.617 |
| RERF-LC-KJ | 0.904 | 0.891 | 0.856 | 0.516 | 0.845 | 0.805 | 0.747 | 0.502 | 0.632 | 0.64 | 0.685 | 0.573 | 0.872 | 0.896 | 0.854 | 0.752 | 0.515 | 0.52 | 0.473 | 0.386 |
| SK-LU-1 | 0.48 | 0.439 | 0.456 | 0.407 | 0.191 | 0.192 | 0.182 | 0.194 | 0.731 | 0.814 | 0.736 | 0.456 | 1.06 | 1.17 | 1.16 | 0.678 | 0.319 | 0.38 | 0.316 | 0.32 |
| SK-MES-1 | 0.729 | 0.756 | 0.6 | 0.497 | 0.407 | 0.47 | 0.343 | 0.292 | 1.1 | 1.19 | 1.02 | 0.918 | 1.04 | 1.15 | 1.09 | 0.948 | 0.952 | 0.954 | 0.751 | 0.658 |
| SW 1573 | 0.399 | 0.497 | 0.473 | 0.34 | 0.42 | 0.414 | 0.344 | 0.454 | 0.614 | 0.666 | 1.04 | 0.66 | 0.621 | 0.785 | 0.855 | 0.703 | 0.171 | 0.164 | 0.215 | 0.161 |
| UMC-11 | 0.288 | 0.335 | 0.367 | 0.343 | 0.446 | 0.454 | 0.416 | 0.422 | 0.346 | 0.384 | 0.309 | 0.469 | 1.05 | 1.1 | 0.962 | 0.805 | 0.189 | 0.213 | 0.196 | 0.202 |
